Data set [1] relates to Chromobacterium violaceum CV026. The experiment in a line: Quorum sensing inhibition, disc-diffusion assay with Chromobacterium violaceum CV026 (QS and antibacterial zones). Type of data set: cell-based. Particulars: for QS (zone of quorum sensing inhibition): disc diffusion, zone past the disk; for zone of inhibition at 7.81 µg/mL / zone of inhibition at 15.63 µg/mL / zone of inhibition at 31.13 µg/mL / zone of inhibition at 62.5 µg/mL / zone of inhibition at 125 µg/mL / zone of inhibition at 250 µg/mL / zone of inhibition at 500 µg/mL: Chromobacterium violaceum. How it is done:
Chromobacterium violaceum CV026 is a violacein negative, double mini-Tn5 mutant from C. violaceum (ATCC 31532) that was used to identify quorum sensing inhibition.
A stock solution of 1000 ug of compound V and capsaicin was prepared by dissolving 1000 μg in 100 μl of ethanol and 900 μl of sterile water. The stock solutions were sequentially diluted with double volumes of solvent (10% aqueous ethanol solution) to yield 500/250/125/62.5/31.25/15.625/7.81 μg/ml test solutions.
Chromobacterium violaceum CV026 was used to determine the anti-quorum sensing activity. Inducer N-hexanoyl homoserine lactone (C6-HSL) was purchased from Sigma-Aldrich. CV026 was cultivated in Luria-Bertani (LB) medium (LB, 5 g yeast extract, 10 g tryptone, 5 g NaCl, 1 L water) at 30° C. overnight under aerobic conditions. A standard disc-diffusion assay was used to detect anti-quorum sensing activity of V and capsaicin by making use of double layer culture plates. 15 ml LB medium (2.5% agar) was overlaid with 15 ml LB (1.0% agar) containing 50 μl C. violaceum CV026 with 20 μg/ml-1 kanamycin and 50 ng/ml C6-AHL. Test concentrations of V and capsaicin were added onto sterile disks (8 mm diameter) and placed on the agar. The plates were then incubated overnight at 30° C. and quorum sensing inhibition was detected as a less colored/colourless zone around the disk, where viable cells, indicative of growth but quorum sensing inhibition, were present. Measurements were made from the outer edge of the discs to the edge of the zones of anti-quorum sensing inhibition. The formulation solvent (10% aqueous ethanol) was used as the negative control.
The biosensor strain, C. violaceum CV026, is a mutant of the wild type strain and is unable to produce its own AHL signal. It only responds to exogenous active signal molecules and produces a purple color, violacein. Loss of this purple color around the disk when incubated with exogenous AHL is thus indicative of QS inhibition by the test compounds. More specifically, the zone (mm past the disk) of QS inhibition results in an opaque disc with no purple color but bacterial growth. […] The results are shown below in Table 1, wherein QS denotes quorum sensing.
(A growth-free zone around the sample is the usual read-out of agar diffusion tests.)

For data set [2] the following is noted: Rage Paulsen et al., Toxicology Research and Application 2018; cited from earlier work.
Where [3] appears, read: CV026, read-out: Antibacterial (zone of growth inhibition).
Where [4] appears, read: CV026, read-out: QS (zone of quorum sensing inhibition).

Where two headings read alike, the source gives them in different places.

For `COc1cc(CNC(=O)CCCC/C=C/C(C)C)ccc1O` [Capsaicin, (E)-N-(4-hydroxy-3-methoxybenzyl)-8-methylnon-6-enamide, reference compound], the “QS (zone of quorum sensing inhibition)” value in data set [1] (62.5 μg/mL) is on record as “NO”. Besides, in data set [1] (125 μg/mL), the “QS (zone of quorum sensing inhibition)” value is “NO”. Besides, the “QS (zone of quorum sensing inhibition)” value in data set [1] (250 μg/mL) is “NO”. For the same molecule, in data set [1] (500 μg/mL), the “QS (zone of quorum sensing inhibition)” value is “NO”. Also, in data set [1] (setting [3]), the zone of inhibition at 7.81 µg/mL stood at 0 mm, the zone of inhibition at 15.63 µg/mL was found to be 0 mm, the zone of inhibition at 31.13 µg/mL was determined as 0 mm and the zone of inhibition at 62.5 µg/mL amounted to 8 mm. Moreover, in data set [1] (setting [3]), the zone of inhibition at 125 µg/mL amounted to 9 mm, the zone of inhibition at 250 µg/mL was determined as 14 mm and the zone of inhibition at 500 µg/mL was found to be 11 mm. In data set [1] (setting [4]), the zone of inhibition at 7.81 µg/mL stood at 0 mm, the zone of inhibition at 15.63 µg/mL worked out at 0 mm and the zone of inhibition at 31.13 µg/mL amounted to 0 mm. Moreover, the “quorum sensing inhibiting activity (in words)” value in data set [1] (non antibacterial doses (31.25/15.625/7.81 μg/ml)) is “did not exhibit quorum sensing inhibiting activity”.
Turning to `COc1cc(CNC(=O)CCCCC#Cc2ccccc2)ccc1O` [Phenylcapsaicin, N-[(4-hydroxy-3-methoxyphenyl)methyl]-7-phenylhept-6-ynamide], in data set [1] (125 μg/mL), the “QS (zone of quorum sensing inhibition)” value was “NO”. Besides, in data set [1] (250 μg/mL), the “QS (zone of quorum sensing inhibition)” value was “NO”. In data set [1] (500 μg/mL), the “QS (zone of quorum sensing inhibition)” value is listed as “NO”. Also, in data set [1] (61.5/31.25/15.625/7.81 μg/ml doses), the “quorum sensing inhibiting activity (in words)” value was “strong to weak”. Further, in data set [1] (setting [3]), the zone of inhibition at 7.81 µg/mL stood at 0 mm, the zone of inhibition at 15.63 µg/mL was determined as 0 mm, the zone of inhibition at 31.13 µg/mL came out at 0 mm and the zone of inhibition at 62.5 µg/mL turned out to be 3 mm. In data set [1] (setting [3]), the zone of inhibition at 125 µg/mL stood at 5 mm, the zone of inhibition at 250 µg/mL was determined as 9 mm and the zone of inhibition at 500 µg/mL is 10 mm. In data set [1] (setting [4]), the zone of inhibition at 7.81 µg/mL amounted to 3 mm, the zone of inhibition at 15.63 µg/mL was 9 mm, the zone of inhibition at 31.13 µg/mL was determined as 11 mm and the zone of inhibition at 62.5 µg/mL was found to be 7 mm. For the same molecule, the “antibacterial activity (in words)” value in data set [1] (higher doses (500/250/125 μg/ml)) is “antibacterial activity”. Also, in data set [2], the “safety with regards to gene mutations and chromosomal damage” value was “safe”; the systemic toxicity entry is “low systemic toxicity”.

As a reminder, the zone of inhibition is the size of the clear area around the sample on an inoculated plate.

The values above are taken from US20240009150A1, “CAPSAICYNS IN THE TREATMENT OF LEAKY GUT” (AXICHEM AB [SE]/[SE], priority 2020, published 2024).
